Target: T1, Motilin receptor (Oryctolagus cuniculus, UniProt G1T803)
T1 construct: homogenized in a 50 mM Tris solution (pH 7.4) to prepare a protein solution; from tissue; host or cells: rabbit duodenum (mucous membrane detached from the tunica muscularis, then homogenized)
Experiment: Motilin receptor binding test (125I-labeled motilin)
Conditions: rabbit duodenum tunica muscularis homogenate; 25 pM 125I-labeled motilin; 25° C., 120 minutes; test drug in DMSO (final 1%); read-out: IC50, the concentration of the test drug which reduces the specific binding capacity to 50%
Protocol: Motilin receptor binding test was carried out by the method shown below (see V. Bormans, et al., Regul, Peptides, 15, 143 (1986)). From a slaughtered rabbit was removed the duodenum, of which the mucous membrane was detached from the tunica muscularis and then homogenized in a 50 mM Tris solution (pH 7.4) to prepare a protein solution. After incubating 25 pM ^125 I-labeled motilin (available from Otsuka Assay Laboratory) and the protein solution at 25° C. for 120 minutes, radioactivity in the protein solution was measured with a γ-ray counter. The difference between the radioactivity observed in the case of non-addition of motilin and that observed in the case of addition of an excess (1×10^-7 M) of motilin was defined as the specific binding capacity. The efficacy of the sample was expressed as IC50, the concentration of the test drug which reduces the specific binding capacity to 50%. The test drug was dissolved in a DMSO solution and added to the protein solution (the final DMSO concentration: 1%).

T1 sequence (G1T803 1-400): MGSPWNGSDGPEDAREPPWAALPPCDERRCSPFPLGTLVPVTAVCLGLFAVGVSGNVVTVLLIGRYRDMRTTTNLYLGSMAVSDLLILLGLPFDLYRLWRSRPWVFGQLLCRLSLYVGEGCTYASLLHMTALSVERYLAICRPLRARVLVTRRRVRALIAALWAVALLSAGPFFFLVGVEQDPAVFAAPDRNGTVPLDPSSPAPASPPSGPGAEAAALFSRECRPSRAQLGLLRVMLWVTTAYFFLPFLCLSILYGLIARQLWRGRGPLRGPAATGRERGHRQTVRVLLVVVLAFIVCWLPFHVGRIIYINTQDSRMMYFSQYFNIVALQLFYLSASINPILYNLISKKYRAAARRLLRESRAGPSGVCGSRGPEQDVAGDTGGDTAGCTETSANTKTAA

COC1(C)CC(OC2C(C)C(=O)OC(C)C(=O)C(C)C3=C(C)CC(C)(O3)C(OC3OC(C)CC(N(C)C)C3O)C2C)OC(C)C1O (stereo not shown) [Compound 4]
IC50: 5.7 nM

Reference: US6100239A, “13-membered ring macrolide compound, medicine containing the same, and process for producing the same” (Chugai Seiyaku Kabushiki Kaisha, priority 1996, dated 2000)
